Experimental data as given in patent US20260374754A1, “N-((ISOQUINOLIN-6-YL)METHYL)-1H-PYRAZOLE-4-CARBOXAMIDE DERIVATIVES AS PLASMA KALLIKREIN INHIBITORS FOR THE TREATMENT OF HEREDITARY ANGIODEMA” (Takeda Pharmaceutical Company Limited, priority 2022, published 2026).
Counter-ions that a name gives are not always drawn.

Target: human activated kallikrein enzyme (Homo sapiens, UniProt P03952)
Test: Inhibition of human activated plasma kallikrein, fluorogenic PFR-AMC substrate, 500 pM enzyme format
Format: biochemical
Settings: 500 pM activated kallikrein; 300 μM PFR-AMC; 30 min preincubation; 10 min room temperature; pH 7.5; read-out: Primary Dose Response Assay: Average EC50
Protocol: Compounds were evaluated for inhibition of the human activated kallikrein enzyme in two formats of an assay employing a fluorogenic peptide substrate. In one assay format, the concentrations of reagents were as follows: 20 mM Tris pH 7.5, 1 mM EDTA, 150 mM sodium chloride, 0.1% PEG-400, 0.1% Triton X-100, 500 pM activated kallikrein enzyme, 300 μM Pro-Phe-Arg-7-amido-4-methylcoumarin (PFR-AMC) substrate. Prior to reaction initiation with substrate, enzyme and inhibitors were preincubated for 30 min at room temperature. After initiation with substrate, reactions were incubated for 10 min at room temperature and fluorescence emission at 460 nm from 380 nm excitation measured with a microplate reader. In another assay format, the concentrations of reagents were as follows: 20 mM Tris pH 7.5, 1 mM EDTA, 150 mM sodium chloride, 0.1% PEG-400, 0.1% Triton X-100, 5 pM activated kallikrein enzyme, 300 uM PFR-AMC substrate. Prior to reaction initiation with substrate, enzyme and inhibitors were preincubated for 30 min at room temperature. After initiation with substrate, reactions were incubated for 18 hr at room temperature and fluorescence emission at 460 nm from 380 nm excitation measured with a microplate reader.
Table 35 provides the results of the assay in the format with 500 pM activated kallikrein assay.

Chain of human activated kallikrein enzyme (P03952 391-638 limits assumed): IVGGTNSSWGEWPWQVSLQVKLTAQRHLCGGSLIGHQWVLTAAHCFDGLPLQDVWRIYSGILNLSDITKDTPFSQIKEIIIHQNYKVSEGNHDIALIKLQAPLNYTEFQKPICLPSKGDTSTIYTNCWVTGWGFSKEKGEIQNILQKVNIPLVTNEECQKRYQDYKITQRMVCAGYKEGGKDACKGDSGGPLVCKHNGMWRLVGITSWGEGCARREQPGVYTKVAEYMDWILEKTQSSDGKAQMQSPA
Chain of human activated kallikrein enzyme (P03952 20-390 partner limits assumed): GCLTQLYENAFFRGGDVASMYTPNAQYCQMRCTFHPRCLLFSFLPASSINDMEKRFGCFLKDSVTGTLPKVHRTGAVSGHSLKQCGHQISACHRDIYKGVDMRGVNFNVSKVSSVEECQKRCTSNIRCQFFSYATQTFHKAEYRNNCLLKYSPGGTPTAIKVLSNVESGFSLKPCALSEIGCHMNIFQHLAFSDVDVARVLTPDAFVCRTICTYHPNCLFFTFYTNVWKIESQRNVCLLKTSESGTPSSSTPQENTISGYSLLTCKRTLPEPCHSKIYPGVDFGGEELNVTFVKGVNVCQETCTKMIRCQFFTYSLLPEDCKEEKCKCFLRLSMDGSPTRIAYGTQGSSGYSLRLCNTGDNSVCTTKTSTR

SMILES	EC50
Cc1ccc2ccc(Cn3cc(C(=O)NCc4c(C)cc5c(N)nccc5c4C)cn3)cc2n1 [Example 27, N-((1-amino-5,7-dimethylisoquinolin-6-yl)methyl)-1-((2-methylquinolin-7-yl)methyl)-1H-pyrazole-4-carboxamide]	< 1 nM
Cc1cc2c(N)nccc2c(C)c1CNC(=O)c1cnn(Cc2cccc(C3CC3)c2)c1 [Example 31, N-((1-amino-5,7-dimethylisoquinolin-6-yl)methyl)-1-(3-cyclopropylbenzyl)-1H-pyrazole-4-carboxamide]	1 to 10 nM
Cc1cc2c(N)nccc2c(C)c1CNc1cc2c(cn1)c(F)cn2Cc1cc2cc(C3CC3)cnc2s1 [Example 286, 6-(((1-((5-cyclopropylthieno[2,3-b]pyridin-2-yl)methyl)-3-fluoro-1H-pyrrolo[3,2-c]pyridin-6-yl)amino)methyl)-5,7-dimethylisoquinolin-1-amine]	1 to 10 nM
Cc1cc2c(N)nccc2c(C)c1CNC(=O)c1cnn(Cc2cn3c(F)c(C4CC4)ccc3n2)c1 [Example 142, N-((1-amino-5,7-dimethylisoquinolin-6-yl)methyl)-1-((6-cyclopropyl-5-fluoroimidazo[1,2-a]pyridin-2-yl)methyl)-1H-pyrazole-4-carboxamide]	< 1 nM
Cc1cc2c(N)nccc2c(C)c1CNc1ncccc1NCc1cn2cc(C3CC3)ccc2n1 [Example 506, N^2-((1-amino-5,7-dimethylisoquinolin-6-yl)methyl)-N^3-((6-cyclopropylimidazo[1,2-a]pyridin-2-yl)methyl)pyridine-2,3-diamine]	10 to 100 nM
Cc1cc2c(N)nccc2c(C)c1CNc1cnnc(NCc2ccc(Cn3ccccc3=O)cc2)c1 [Example 537, 1-(4-(((5-(((1-amino-5,7-dimethylisoquinolin-6-yl)methyl)amino)pyridazin-3-yl)amino)methyl)benzyl)pyridin-2(1H)-one]	< 1 nM
Cc1cc2c(N)nccc2c(C)c1CNc1ccnc(OCc2ccc(Cn3cccn3)cc2)c1 [Example I-455, 6-(((2-((4-((1H-pyrazol-1-yl)methyl)benzyl)oxy)pyridin-4-yl)amino)methyl)-5,7-dimethylisoquinolin-1-amine]	1 to 10 nM
Cc1cc2c(N)nccc2c(C)c1CNC(=O)c1cnn(Cc2ncccn2)c1 [Example 83, N-((1-amino-5,7-dimethylisoquinolin-6-yl)methyl)-1-(pyrimidin-2-ylmethyl)-1H-pyrazole-4-carboxamide]	100 to 1000 nM
CC(=O)Nc1nccc2c(C)c(CNC(=O)c3cnn(Cc4ccc5ncc(Cl)cc5c4)c3)c(C)cc12 [Example 133, N-((1-acetamido-5,7-dimethylisoquinolin-6-yl)methyl)-1-((3-chloroquinolin-6-yl)methyl)-1H-pyrazole-4-carboxamide]	10 to 100 nM
Cc1cc2c(N)nccc2c(C)c1CNC(=O)c1cnn(Cc2ccc(CC(=O)N3C[C@@H]4[C@H](C)[C@@H]4C3)cc2)c1 [Example 205, N-((1-amino-5,7-dimethylisoquinolin-6-yl)methyl)-1-(4-(2-((1R,5S,6r)-6-methyl-3-azabicyclo[3.1.0]hexan-3-y1)-2-oxoethyl)benzyl)-1H-pyrazole-4-carboxamide]	< 1 nM
Cc1cc2c(N)nccc2c(C)c1CNc1cc(NCc2ccc3ncc(F)cc3c2)ncn1 [Example 334, N^4-((1-amino-5,7-dimethylisoquinolin-6-yl)methyl)-N^6-((3-fluoroquinolin-6-yl)methyl)pyrimidine-4,6-diamine]	< 1 nM
Cc1cc2c(N)nccc2c(C)c1CNC(=O)c1cnn(Cc2cn3c(C#N)cccc3n2)c1 [Example 143, N-((1-amino-5,7-dimethylisoquinolin-6-yl)methyl)-1-((5-cyanoimidazo[1,2-a]pyridin-2-yl)methyl)-1H-pyrazole-4-carboxamide]	< 1 nM
CCOC(=O)Nc1nccc2c(C)c(CNC(=O)c3cnn(Cc4cn5cc(C)ccc5n4)c3)c(C)cc12 [Example 9, ethyl (5,7-dimethyl-6-((1-((6-methylimidazo[1,2-a]pyridin-2-yl)methyl)-1H-pyrazole-4-carboxamido)methyl)isoquinolin-1-yl)carbamate]	1 to 10 nM
CCOC(=O)Nc1nccc2c(C)c(CNc3cc(N(Cc4ccc(Cn5ccccc5=O)cc4)C(=O)OCC)ncn3)c(C)cc12 [Example I-481, ethyl (6-(((1-((ethoxycarbonyl)amino)-5,7-dimethylisoquinolin-6-yl)methyl)amino)pyrimidin-4-yl)(4-((2-oxopyridin-1(2H)-yl)methyl)benzyl)carbamate]	> 1000 nM
Cc1cc2c(N)nccc2c(C)c1CNc1cc(NCc2ccc3cnccc3c2)ncn1 [Example 320, N^4-((1-amino-5,7-dimethylisoquinolin-6-yl)methyl)-N^6-(isoquinolin-6-ylmethyl)pyrimidine-4,6-diamine]	1 to 10 nM
COc1nc2ccccc2cc1Cn1cc(C(=O)NCc2c(C)cc3c(N)nccc3c2C)cn1 [Example 67, N-((1-amino-5,7-dimethylisoquinolin-6-yl)methyl)-1-((2-methoxyquinolin-3-yl)methyl)-1H-pyrazole-4-carboxamide]	1 to 10 nM
Cc1cc2c(N)nccc2c(C)c1CNc1cc(NCc2cnc3ccccc3c2)ncn1 [Example 317, N^4-((1-amino-5,7-dimethylisoquinolin-6-yl)methyl)-N^6-(quinolin-3-ylmethyl)pyrimidine-4,6-diamine, formic acid salt]	1 to 10 nM
Cc1cc2c(N)nccc2c(C)c1CNc1cc(NCc2ccc(Cn3cc(Cl)cc(Cl)c3=O)cc2)ncn1 [Example I-463, 1-(4-(((6-(((1-amino-5,7-dimethylisoquinolin-6-yl)methyl)amino)pyrimidin-4-yl)amino)methyl)benzyl)-3,5-dichloropyridin-2(1H)-one]	< 1 nM
Cc1ccc2ncc(COc3cc(NCc4c(C)cc5c(N)nccc5c4C)ncn3)cc2c1 [Example 372, 5,7-dimethyl-6-(((6-((6-methylquinolin-3-yl)methoxy)pyrimidin-4-yl)amino)methyl)isoquinolin-1-amine formic acid salt]	1 to 10 nM
COc1ccc2cc(Cn3cc(C(=O)NCc4c(C)cc5c(N)nccc5c4C)cn3)cnc2c1 [Example 111, N-((1-amino-5,7-dimethylisoquinolin-6-yl)methyl)-1-((7-methoxyquinolin-3-yl)methyl)-1H-pyrazole-4-carboxamide]	< 1 nM
Cc1cc2c(N)nccc2c(C)c1CNC(=O)c1cnn(Cc2cc(C(F)(F)F)cc(C(F)(F)F)c2)c1 [Example 95, N-((1-amino-5,7-dimethylisoquinolin-6-yl)methyl)-1-(3,5-bis(trifluoromethyl)benzyl)-1H-pyrazole-4-carboxamide]	10 to 100 nM
Cc1cc2c(N)nccc2c(C)c1CNC(=O)c1cnn(Cc2ccc(CC(=O)N3CC4CC(C4)C3)cc2)c1 [Example 215, 1-(4-(2-(3-azabicyclo[3.1.1]heptan-3-yl)-2-oxoethyl)benzyl)-N-((1-amino-5,7-dimethylisoquinolin-6-yl)methyl)-1H-pyrazole-4-carboxamide]	1 to 10 nM
Cc1cc2c(N)nccc2c(C)c1CNc1cc(OCc2ccc(-n3ccccc3=O)cc2)cnn1 [Example 438, 1-(4-(((6-(((1-amino-5,7-dimethylisoquinolin-6-yl)methyl)amino)pyridazin-4-yl)oxy)methyl)phenyl)pyridin-2(1H)-one]	1 to 10 nM
Cc1cc2c(N)nccc2c(C)c1CNC(=O)c1cnn(Cc2ccc(CC(=O)N3C[C@@H]4[C@H](CO)[C@@H]4C3)cc2)c1 [Example 209, N-((1-amino-5,7-dimethylisoquinolin-6-y1)methyl)-1-(4-(2-((1R,5S,6s)-6-(hydroxymethyl)-3-azabicyclo[3.1.0]hexan-3-y1)-2-oxoethyl)benzyl)-1H-pyrazole-4-carboxamide]	< 1 nM
Cc1cc2c(N)nccc2c(C)c1CNc1cc2nn(Cc3ccc(Cn4cccn4)cc3)cc2cn1 [Example I-459, 6-(((2-(4-((1H-pyrazol-1-yl)methyl)benzyl)-2H-pyrazolo[4,3-c]pyridin-6-yl)amino)methyl)-5,7-dimethylisoquinolin-1-amine]	10 to 100 nM
Cc1cc2c(N)nccc2c(C)c1CNc1cc(OCc2ccc3c(cnn3C)c2)cnn1 [Example 413, 5,7-dimethyl-6-(((5-((1-methyl-1H-indazol-5-yl)methoxy)pyridazin-3-yl)amino)methyl)isoquinolin-1-amine]	1 to 10 nM
Cc1cc2c(N)nccc2c(C)c1CNC(=O)c1cnn(Cc2ccc(CC(=O)N3C[C@@H]4[C@@H](CO)[C@@H]4C3)cc2)c1 [Example 208, N-((1-amino-5,7-dimethylisoquinolin-6-yl)methyl)-1-(4-(2-((1R,5S,6r)-6-(hydroxymethyl)-3-azabicyclo[3.1.0]hexan-3-y1)-2-oxoethyl)benzyl)-1H-pyrazole-4-carboxamide]	10 to 100 nM
Cc1cc2c(N)nccc2c(C)c1CNC(=O)c1cnn(Cc2ccc(CCn3cccn3)cc2)c1 [Example 48, 1-(4-(2-(1H-pyrazol-1-yl)ethyl)benzyl)-N-((1-amino-5,7-dimethylisoquinolin-6-yl)methyl)-1H-pyrazole-4-carboxamide]	1 to 10 nM
Cc1cc2c(N)nccc2c(C)c1CNC(=O)c1cnn(Cc2cn3c(C)c(C)ccc3n2)c1 [Example 136, N-((1-amino-5,7-dimethylisoquinolin-6-yl)methyl)-1-((5,6-dimethylimidazo[1,2-a]pyridin-2-yl)methyl)-1H-pyrazole-4-carboxamide]	< 1 nM
